Where two headings read alike, the source gives them in different places.
Columns and labels:
Mer = target: T1, Mer (Homo sapiens, UniProt Q12866); test: LanthaScreen Eu kinase binding assay for Mer
T1 construct: purchased Life Technologies
T1 sequence (Q12866 21-999): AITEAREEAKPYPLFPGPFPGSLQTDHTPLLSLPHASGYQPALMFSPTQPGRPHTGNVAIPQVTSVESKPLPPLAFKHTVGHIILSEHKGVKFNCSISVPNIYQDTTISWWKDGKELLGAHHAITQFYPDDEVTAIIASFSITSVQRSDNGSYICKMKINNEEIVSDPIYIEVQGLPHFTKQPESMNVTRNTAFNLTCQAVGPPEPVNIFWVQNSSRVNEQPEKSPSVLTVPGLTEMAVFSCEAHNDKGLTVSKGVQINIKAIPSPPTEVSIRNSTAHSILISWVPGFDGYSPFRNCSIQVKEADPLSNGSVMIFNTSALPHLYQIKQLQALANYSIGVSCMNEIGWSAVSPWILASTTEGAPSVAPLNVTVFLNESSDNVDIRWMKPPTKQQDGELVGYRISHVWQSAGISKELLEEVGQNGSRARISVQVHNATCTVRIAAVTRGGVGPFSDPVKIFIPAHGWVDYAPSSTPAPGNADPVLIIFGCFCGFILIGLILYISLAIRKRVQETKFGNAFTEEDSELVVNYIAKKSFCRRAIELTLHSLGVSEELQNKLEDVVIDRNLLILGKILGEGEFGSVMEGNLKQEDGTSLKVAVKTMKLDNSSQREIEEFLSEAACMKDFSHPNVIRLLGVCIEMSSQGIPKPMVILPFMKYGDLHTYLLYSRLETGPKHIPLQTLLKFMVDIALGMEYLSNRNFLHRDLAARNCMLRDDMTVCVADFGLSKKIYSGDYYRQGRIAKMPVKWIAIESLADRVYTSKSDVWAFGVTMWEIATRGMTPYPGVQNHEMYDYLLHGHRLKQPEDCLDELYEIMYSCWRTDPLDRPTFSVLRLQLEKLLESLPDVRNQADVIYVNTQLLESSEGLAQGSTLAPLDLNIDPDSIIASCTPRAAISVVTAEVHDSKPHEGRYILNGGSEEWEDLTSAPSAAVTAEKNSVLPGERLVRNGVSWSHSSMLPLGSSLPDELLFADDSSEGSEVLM
Experimental: LanthaScreen® Eu Kinase Binding assays were conducted at Life Technologies using the manufacturer's specifications for each kinase indicated.
Briefly, the principle behind this assay is based upon the binding and displacement of an Alexa Fluor 647-labeled tracer to the kinase of interest. Binding of the tracer to the kinase is detected using an EU-labeled anti-tag antibody. Simultaneous binding of both the tracer and antibody to the kinase gives rise to a FRET-signal. Binding of an inhibitor to the kinase competes for binding with the tracer, resulting in a loss of FRET-signal.
A given compound was diluted in DMSO to make a stock compound solution. The stock compound solution was serially diluted over eight steps in DMSO. Each diluted compound solution in DMSO was diluted in kinase buffer. Afterwards four kinds of working solution were prepared. First, Tracer-Working solution consists of Tracer 236 and Kinase Buffer. Second, Axl, Mer, Tyro3 or Met/anti-GST-AB-Working solution contained one of the kinases Axl, and Mer or anti-GST-AB (=anti glutathione-S-transferase antibody) in Kinase Buffer. Third, anti-GST-AB-Working solution was made with anti-GST-AB and Kinase Buffer. Last, in the DMSO-Working solution DMSO was added to Kinase Buffer to a final concentration to 3%. Each of the four kinds of working solutions were separately added to the assay plate and then incubated for 1 h at room temperature. After incubation, the assay plate was measured with respect to the FRET-Signal with the EnVision (Perkin Elmer) using the program LanthaHTRF-Assay. Data evaluation was done in the Quattro Workflow software. Kd (the equilibrium dissociation constant) values were calculated relative to vehicle (DMSO) control wells.

CSF1R = CSF1R (Homo sapiens, UniProt P07333); test: KINOMEscan competition binding assay for CSF1R; parameters: DNA tag for qPCR (not a peptide); host or cells: E. coli/T7 phage or HEK-293; conditions: for Kd: read-out: CSF1R kinase binding activity (Kd)
Experimental: KINOMEscan™ is based on a competition binding assay that quantitatively measures the ability of a compound to compete with an immobilized, active-site directed ligand. The assay is performed by combining three components: DNA-tagged kinase; immobilized ligand; and a test compound. The ability of the test compound to compete with the immobilized ligand is measured via quantitative PCR of the DNA tag.
E. coli were grown to log-phase and infected with T7 phage and incubated with shaking at 32° C. until lysis. The lysates were centrifuged and filtered to remove cell debris. The remaining kinases were produced in HEK-293 cells and subsequently tagged with DNA for qPCR detection. Streptavidin-coated magnetic beads were treated with biotinylated small molecule ligands for 30 minutes at room temperature to generate affinity resins for kinase assays. The liganded beads were blocked with excess biotin and washed with blocking buffer (SeaBlock (Pierce), 1% BSA, 0.05% Tween 20, 1 mM DTT) to remove unbound ligand and to reduce non-specific binding. Binding reactions were assembled by combining kinases, liganded affinity beads, and test compounds in 1× binding buffer (20% SeaBlock, 0.17×PBS, 0.05% Tween 20, 6 mM DTT). Test compounds were prepared as 111× stocks in 100% DMSO. Kds were determined using an 11-point 3-fold compound dilution series with three DMSO control points. All compounds for Kd measurements are distributed by acoustic transfer (non-contact dispensing) in 100% DMSO. The compounds were then diluted directly into the assays such that the final concentration of DMSO was 0.9%. In case of % inhibition, test compounds were prepared as 40× stocks in 100% DMSO and directly diluted into the assay. All reactions performed in polypropylene 384-well plate. Each was a final volume of 0.02 ml. The assay plates were incubated at room temperature with shaking for 1 hour and the affinity beads were washed with wash buffer (1×PBS, 0.05% Tween 20). The beads were then re-suspended in elution buffer (1×PBS, 0.05% Tween 20, 0.5 μM non-biotinylated affinity ligand) and incubated at room temperature with shaking for 30 minutes. The kinase concentration in the eluates was measured by qPCR.
The CSF1R kinase binding activity results are shown in tables 1 (Kd) and 2 (percent inhibition at a concentration of 0.1 uM of compound to be tested).
Binding constants (Kds) were calculated with a standard dose-response curve using the Hill equation: […]
The Hill Slope was set to −1.
Curves were fitted using a non-linear least square fit with the Levenberg-Marquardt algorithm.
Binding % inhibition were calculated with as below:
[formula] • negative control=DMSO (100% Ctrl) • positive control=control compound (0% Ctrl)

[1] = read-out: Mer kinase binding activity (Kd)
[2] = read-out: CSF1R kinase binding activity, Percent (%) inhibition
[3] = read-out: CSF1R kinase binding activity, Range
[4] = comparison of compounds of present invention (**) vs compounds of WO2016/166250 (*), read-out: Binding activity Mer (Kd)

CSF1R, sequence (P07333 20-972): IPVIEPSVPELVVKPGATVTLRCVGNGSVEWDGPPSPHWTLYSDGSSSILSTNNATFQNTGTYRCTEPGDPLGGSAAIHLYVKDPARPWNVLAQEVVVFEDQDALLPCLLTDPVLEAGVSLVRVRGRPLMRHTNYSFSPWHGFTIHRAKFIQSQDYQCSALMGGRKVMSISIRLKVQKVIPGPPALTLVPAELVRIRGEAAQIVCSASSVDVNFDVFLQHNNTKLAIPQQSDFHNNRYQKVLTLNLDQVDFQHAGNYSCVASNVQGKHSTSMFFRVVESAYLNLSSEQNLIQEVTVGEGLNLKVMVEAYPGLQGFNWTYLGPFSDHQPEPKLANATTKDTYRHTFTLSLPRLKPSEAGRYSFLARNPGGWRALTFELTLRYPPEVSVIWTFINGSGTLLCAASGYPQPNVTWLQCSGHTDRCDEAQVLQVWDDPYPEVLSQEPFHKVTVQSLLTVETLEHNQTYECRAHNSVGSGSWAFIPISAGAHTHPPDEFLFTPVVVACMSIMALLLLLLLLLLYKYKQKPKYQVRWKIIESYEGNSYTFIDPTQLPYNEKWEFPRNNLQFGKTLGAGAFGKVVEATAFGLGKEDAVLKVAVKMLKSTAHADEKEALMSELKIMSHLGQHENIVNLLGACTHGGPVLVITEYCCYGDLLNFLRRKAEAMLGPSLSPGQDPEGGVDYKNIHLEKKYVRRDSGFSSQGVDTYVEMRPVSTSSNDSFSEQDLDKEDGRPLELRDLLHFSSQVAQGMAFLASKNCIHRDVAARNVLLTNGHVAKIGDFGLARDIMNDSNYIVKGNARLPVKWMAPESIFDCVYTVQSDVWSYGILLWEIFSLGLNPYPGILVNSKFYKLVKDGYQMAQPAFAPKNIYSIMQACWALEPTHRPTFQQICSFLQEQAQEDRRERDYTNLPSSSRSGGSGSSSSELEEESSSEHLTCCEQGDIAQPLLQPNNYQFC

Kd (Mer; [1]) [nM]	inhibition at 0.1 µM (CSF1R; [2]) [%]	inhibition at 0.1 µM (CSF1R; [3]) [%]	Kd (Mer; [4]) [nM]	Kd (CSF1R) [nM]	SMILES
< 100	89	≥ 80	–	–	COc1cc2nccc(Oc3ccc(NC(=O)c4nn(C5CC5)cc4OCC4CCC4)nc3)c2cc1OC [Compound 111]
< 100	57	50 to 80	–	–	COc1cc2nccc(Oc3ccc(NC(=O)c4nn(C5CCN(C)C5)cc4OCC(F)(F)F)cc3F)c2cc1OC (stereo not drawn) [Compound 96]
< 100	98	≥ 80	0.2	< 100	COCCn1cc(OCC(F)(F)F)c(C(=O)Nc2ccc(Oc3ccnc4cc(OC)c(OC)cc34)cn2)n1 [Compound 10]
< 100	60	50 to 80	–	–	COc1cc2nccc(Oc3ccc(NC(=O)c4nn(C5CC5)cc4NCC(F)(F)F)nn3)c2cc1OC [Compound 148]
< 100	96	≥ 80	–	–	COc1cc2nccc(Oc3ccc(NC(=O)c4nn(CC(C)O)cc4OCCF)nc3)c2cc1OC (stereo not drawn) [Compound 152]
< 100	95	≥ 80	–	–	COc1cc2nccc(Oc3ccc(NC(=O)c4nn(CC(C)C)cc4OCC(F)(F)F)nn3)c2cc1OC [Compound 124]
< 100	36	< 50	–	–	COc1cc2nccc(Oc3ccc(NC(=O)c4nn(C5CCN(C)C5)cc4OCC(F)(F)F)cc3)c2cc1OC (stereo not drawn) [Compound 100]
< 100	100	≥ 80	1.3	–	COc1cc2nccc(Oc3ccc(NC(=O)c4nn(CC5COC5)cc4OCC(F)(F)F)nc3)c2cc1OC [Compound 92]
≥ 500	25	< 50	–	–	CNCCOc1cn(C2CC2)nc1C(=O)Nc1ccc(Oc2ccnc3cc(OC)c(OC)cc23)nn1 [Compound 160]
≥ 500	5	< 50	–	–	CCCn1cc(OCCN(C)C)c(C(=O)Nc2ccc(Oc3ccnc4cc(OC)c(OC)cc34)c(F)c2)n1 [Compound 165]
< 100	14	< 50	–	–	COc1cc2nccc(Oc3ccc(NC(=O)c4nn(C5CC5)cc4OCC4COC4)nn3)c2cc1OC [Compound 161]
< 100	97	≥ 80	–	–	COc1cc2nccc(Oc3ccc(NC(=O)c4nn(CC(C)O)cc4OC(C)C)nc3)c2cc1OC (stereo not drawn) [Compound 151]
< 100	90	≥ 80	–	–	COCCOc1cn(C2CC2)nc1C(=O)Nc1ccc(Oc2ccnc3cc(OC)c(OC)cc23)cn1 [Compound 107]
< 100	76	50 to 80	–	–	COc1cc2nccc(Oc3ccc(NC(=O)c4nn(C5CC5)cc4OCC4CCC4)nn3)c2cc1OC [Compound 149]
< 100	21	< 50	–	–	COc1cc2nccc(Oc3ccc(NC(=O)c4nn(C5CCCC5)cc4OCC(F)(F)F)cn3)c2cc1OC [Compound 131]
< 100	96	≥ 80	–	–	COc1cc2nccc(Oc3ccc(NC(=O)c4nn(C5CC5)cc4OC(C)C)nc3)c2cc1OC [Compound 108]
< 100	91	≥ 80	–	–	CCCn1cc(OCCOC)c(C(=O)Nc2ccc(Oc3ccnc4cc(OC)c(OC)cc34)cn2)n1 [Compound 105]
< 100	91	≥ 80	–	–	CCCn1cc(NCCC(F)(F)F)c(C(=O)Nc2ccc(Oc3ccnc4cc(OC)c(OC)cc34)cn2)n1 [Compound 158]
< 100	98	≥ 80	–	< 100	CCCn1cc(OCC(F)F)c(C(=O)Nc2ccc(Oc3ccnc4cc(OC)c(OC)cc34)cn2)n1 [Compound 12]
< 100	91	≥ 80	–	–	COc1cc2nccc(Oc3ccc(NC(=O)c4nn(C5CC5)cc4OCC(F)F)nn3)c2cc1OC [Compound 162]
100 to 500	22	< 50	–	–	CNCCn1cc(OCC(F)(F)F)c(C(=O)Nc2ccc(Oc3ccnc4cc(OC)c(OC)cc34)c(F)c2)n1 [Compound 155]
≥ 500	64	50 to 80	–	–	CCCn1cc(OCC2CNC2)c(C(=O)Nc2ccc(Oc3ccnc4cc(OC)c(OC)cc34)cn2)n1 [Compound 159]
< 100	37	< 50	–	–	CCCn1cc(OCC(F)(F)F)c(C(=O)Nc2ccc(Oc3ccnc4cc(OC)c(OC)cc34)nc2)n1 [Compound 139]
< 100	72	50 to 80	–	–	COc1cc2nccc(Oc3ccc(NC(=O)c4nn(CC5COC5)cc4OCC(F)(F)F)nn3)c2cc1OC [Compound 123]
≥ 500	38	< 50	–	–	COc1cc2nccc(Oc3ccc(NC(=O)c4nn(CCN)cc4OCC(F)(F)F)nn3)c2cc1OC [Compound 125]
< 100	92	≥ 80	–	–	COc1cc2nccc(Oc3ccc(NC(=O)c4nn(C5CC5)cc4NCCC(F)(F)F)nc3)c2cc1OC [Compound 142]

SMILES	Kd (Mer; [1]) [nM]	inhibition at 0.1 µM (CSF1R; [2]) [%]	inhibition at 0.1 µM (CSF1R; [3]) [%]	Kd (Mer; [4]) [nM]	Kd (CSF1R) [nM]
CCn1cc(OCC(F)(F)F)c(C(=O)Nc2ccc(Oc3ccnc4cc(OC)c(OC)cc34)cn2)n1 [Compound 4]	< 100	98	≥ 80	1.6	< 100

— US12162858B2, “Quinoline derivatives as inhibitors of AXL/MER RTK and CSF1R” (QURIENT CO., LTD., priority 2018, dated 2024)
